Legend:
Format in all cases: in vivo
C57B1/6J mice [1] = assay: Feed uptake of mice after a single subcutaneous injection of TCDD; design: unit not given here
Protocol: (§1) Male C57B1/6J mice of 5 weeks old having the average weight of 18-22 g which had been bred in CRJ (Charles River in Japan) were purchased and used in this example as experimental animals. Those mice were acclimated under the constant breeding condition, i.e. the temperature of 24±1° C., the humidity of 60±10% and the light and darkness cycle of 12 hours, for one week and thereafter, utilized in the experiment.
The Experimental animals were supplied with Purina powdered feed (purchased from Hae Eun Trade) and supplied with water ad libitum. All the animals were weighed twice a week during experimentation.
(§2) 2,3,7,8-tetrachlorodibenzo-p-dioxin (TCDD) dissolved in toluene (purity of 95% or more as a result of gas chromatography analysis), manufactured by Chem. Services Inc. in USA, was volatilized with nitrogen to obtain powder. The obtained powder was dissolved in a mixed solvent containing acetone and corn oil with a volume ratio of 1:6. The resulting solution each containing 110, 27.5 and 6.9 μg/kg of TCDD was subcutaneously injected to mice at a volume of 5 ml per body weight. […] The mice were supplied with the feed from 10 days before (pre-administration) to 60 days after administration of TCDD (post-administration).
(§3) The results are expressed as Mean±Standard Deviation values. For statistical analysis of the body weight, feed and water uptake, biochemical findings, hematological findings and the weight of organ in an acute toxicity test, verification was performed by one way analysis of variance (ANOVA) in case of equal distribution. In case significance was recognized in ANOVA, the Student's t-test was performed in the levels of p<0.05 and p<0.01.

C57B1/6J mice [2] = assay: Blood (serum) biochemical changes in mice by a single subcutaneous injection of TCDD
Protocol: as §1, §2
(§4) Upon completion of the experiment for 60 days, the experimental animals were fasted for 24 hours and anesthetized with ether. Then, they were abdominally incised and blood was gathered from abdominal vena cava. They were sacrificed by the release of blood. Liver, kidneys, testes and epididymides were extracted and all the extracted organs were weighed. Only the testes were separately kept and observed under optical and electron microscopes. For biochemical finding test, serum was separated from blood with a centrifuge and the separated serum was analyzed with an automated blood biochemical analyzer, Dimension (Dupont, USA). Blood was put to another blood gathering bottle and then, analyzed with an automated blood cell analyzer, Celldyn (Abbott, USA).
as §3
For biochemical findings in the serum, the levels of glucose (GLU), GOT, GPT, Triglyceride (TG), high density lipoprotein (HDL-C), low density lipoprotein (LDL-C) and alkaline phosphatase (ALP) in serum were measured and the results are shown in the following.

C57B1/6J mice [3] = assay: Electron microscopy of testes (cellular microstructures); conditions: TCDD 27.5 μg/kg + 0.5% by weight of UDCA; FIG. 10
Protocol: as §2
as §4, with “(Abbott, USA). […]” for “(Abbott, USA).”

[4] = TCDD 6.9 μg/kg + UDCA 0.125 wt %
[5] = TCDD 6.9 μg/kg + UDCA 0.25 wt %
[6] = TCDD 27.5 μg/kg + UDCA 0.125 wt %
[7] = TCDD 27.5 μg/kg + UDCA 0.25 wt %
[8] = TCDD 27.5 μg/kg + UDCA 0.5 wt %

Molecule `C[C@H](CCC(=O)O)[C@H]1CC[C@H]2[C@@H]3[C@@H](O)C[C@@H]4C[C@H](O)CC[C@]4(C)[C@H]3CC[C@]12C` [UDCA, 3α, 7β-dihydroxy-5β-cholanoic acid] has a feed uptake (C57B1/6J mice [1]; TCDD 110.0 μg/kg + UDCA 0.25 wt %, 40 days) of 3.06 ± 1.89, a feed uptake (C57B1/6J mice [1]; TCDD 110.0 μg/kg + UDCA 0.5 wt %, 10 days) of 3.87 ± 0.57 and a feed uptake (C57B1/6J mice [1]; TCDD 110.0 μg/kg + UDCA 0.5 wt %, 20 days) of 3.77 ± 0.62. The feed uptake (C57B1/6J mice [1]; TCDD 110.0 μg/kg + UDCA 0.5 wt %, 30 days) was 3.39 ± 0.24, the feed uptake (C57B1/6J mice [1]; TCDD 110.0 μg/kg + UDCA 0.5 wt %, 40 days) was 2.72 ± 0.72 and the feed uptake (C57B1/6J mice [1]; TCDD 110.0 μg/kg + UDCA 0.5 wt %, 50 days) was 2.19 ± 0.22. For the same molecule, the feed uptake (C57B1/6J mice [1]; TCDD 110.0 μg/kg + UDCA 0.5 wt %, 60 days) was 2.05 ± 0.62, the ALP (C57B1/6J mice [2]; [4]) was 66.78 ± 7.21 IU/l and the GLU (C57B1/6J mice [2]; [4]) was 128.00 ± 27.26 mg/dL. For the same molecule, the GOT (C57B1/6J mice [2]; [4]) was 49.80 ± 2.74 IU/l, the GPT (C57B1/6J mice [2]; [4]) was 23.50 ± 8.32 IU/l and the HDL-C (C57B1/6J mice [2]; [4]) was 45.67 ± 2.74 mg/dL. For the same molecule, the LDL-C (C57B1/6J mice [2]; [4]) was 14.56 ± 6.28 mg/dL, the TG (C57B1/6J mice [2]; [4]) was 79.56 ± 1129 mg/dL and the ALP (C57B1/6J mice [2]; [5]) was 72.05 ± 6.63 IU/l. For the same molecule, the GLU (C57B1/6J mice [2]; [5]) was 104.60 ± 24.87 mg/dL, the GOT (C57B1/6J mice [2]; [5]) was 57.30 ± 4.83 IU/l and the GPT (C57B1/6J mice [2]; [5]) was 24.00 ± 6.39 IU/l. The HDL-C (C57B1/6J mice [2]; [5]) was 46.30 ± 5.08 mg/dL, the LDL-C (C57B1/6J mice [2]; [5]) was 21.20 ± 5.25 mg/dL and the TG (C57B1/6J mice [2]; [5]) was 75.90 ± 11.55 mg/dL. For the same molecule, the ALP (C57B1/6J mice [2]; TCDD 6.9 μg/kg + UDCA 0.5 wt %) was 85.24 ± 10.28 IU/l, the GLU (C57B1/6J mice [2]; TCDD 6.9 μg/kg + UDCA 0.5 wt %) was 125.50 ± 14.98 mg/dL and the GOT (C57B1/6J mice [2]; TCDD 6.9 μg/kg + UDCA 0.5 wt %) was 47.11 ± 1.9 IU/l. The GPT (C57B1/6J mice [2]; TCDD 6.9 μg/kg + UDCA 0.5 wt %) was 18.78 ± 5.07 IU/l, the HDL-C (C57B1/6J mice [2]; TCDD 6.9 μg/kg + UDCA 0.5 wt %) was 44.83 ± 2.04 mg/dL and the LDL-C (C57B1/6J mice [2]; TCDD 6.9 μg/kg + UDCA 0.5 wt %) was 28.33 ± 4.63 mg/dL. For the same molecule, the TG (C57B1/6J mice [2]; TCDD 6.9 μg/kg + UDCA 0.5 wt %) was 84.20 ± 7.66 mg/dL, the ALP (C57B1/6J mice [2]; [6]) was 75.14 ± 18.33 IU/l and the GLU (C57B1/6J mice [2]; [6]) was 55.22 ± 9.34 mg/dL. For the same molecule, the GOT (C57B1/6J mice [2]; [6]) was 75.22 ± 6.38 IU/l, the GPT (C57B1/6J mice [2]; [6]) was 54.67 ± 23.28 IU/l and the HDL-C (C57B1/6J mice [2]; [6]) was 34.78 ± 4.35 mg/dL. The LDL-C (C57B1/6J mice [2]; [6]) was 2.40 ± 1.14 mg/dL, the TG (C57B1/6J mice [2]; [6]) was 98.78 ± 17.14 mg/dL and the ALP (C57B1/6J mice [2]; [7]) was 79.63 ± 6.07 IU/l. It also gave a GLU (C57B1/6J mice [2]; [7]) of 82.44 ± 13.04 mg/dL, a GOT (C57B1/6J mice [2]; [7]) of 58.67 ± 5.54 IU/l and a GPT (C57B1/6J mice [2]; [7]) of 42.11 ± 22.05 IU/l. For the same molecule, the HDL-C (C57B1/6J mice [2]; [7]) was 37.44 ± 3.64 mg/dL, the LDL-C (C57B1/6J mice [2]; [7]) was 4.29 ± 4.03 mg/dL and the TG (C57B1/6J mice [2]; [7]) was 97.00 ± 17.68 mg/dL. The ALP (C57B1/6J mice [2]; [8]) was 80.57 ± 14.52 IU/l, the GLU (C57B1/6J mice [2]; [8]) was 64.22 ± 9.35 mg/dL and the GOT (C57B1/6J mice [2]; [8]) was 96.67 ± 31.63 IU/l. For the same molecule, the GPT (C57B1/6J mice [2]; [8]) was 45.38 ± 21.74 IU/l, the HDL-C (C57B1/6J mice [2]; [8]) was 47.00 ± 7.66 mg/dL and the LDL-C (C57B1/6J mice [2]; [8]) was 15.33 mg/dL. For the same molecule, the TG (C57B1/6J mice [2]; [8]) was 133.33 ± 13.17 mg/dL and the “heads of sperms, electron microphotograph” value (C57B1/6J mice [3]) was “Normal shapes of sperm heads were retained”.

Reference: patent US20040029965A1, “Formulations for reducing or eliminating toxicity of enviromental hormones containing ursodeoxycholic acid” (priority 2000, published 2004)
